Test results from ChEMBL document CHEMBL1201862, “PubChem BioAssay data set” (2004).
Active and inactive are the calls of the source.

Legend:
[1] = reduction of Shn3 3'UTR-driven luciferase in osteoblasts – cell-based, Clone20 osteoblasts, firefly luciferase, cherry-picked, dose response (AID 624132); format: functional;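 further: firefly luciferase luminescence from reporter carrying the Shn3 3'UTR in osteoblasts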
[2] = loss of viability in HepG2 cells – cell-based, CellTiter-Glo, cherry-picked, cytotoxicity control for Shn3 inhibitor project, dose response (AID 624134); format: functional
[3] = non-specific 3'UTR reporter inhibition in Clone20-Shn3RL – cell-based, Renilla luciferase, cherry-picked, counter-screen for Shn3 inhibitor project, dose response (AID 624133); format: functional
[4] = Shn3 3'UTR reporter signal decrease – cell-based, Clone20 osteoblasts, firefly luciferase, cherry-pick, set 2, Schnurri-3 inhibitor project, dose response (AID 720490); format: functional;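 further: actives lower the luminescence signal as inhibitors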
[5] = biological target: T1, Methionyl-tRNA synthetase, putative (Trypanosoma brucei brucei, UniProt Q38C91); format: functional, Trypanosoma brucei brucei strain 927/4 GUTat10.1
T1 sequence (Q38C91 whole entry): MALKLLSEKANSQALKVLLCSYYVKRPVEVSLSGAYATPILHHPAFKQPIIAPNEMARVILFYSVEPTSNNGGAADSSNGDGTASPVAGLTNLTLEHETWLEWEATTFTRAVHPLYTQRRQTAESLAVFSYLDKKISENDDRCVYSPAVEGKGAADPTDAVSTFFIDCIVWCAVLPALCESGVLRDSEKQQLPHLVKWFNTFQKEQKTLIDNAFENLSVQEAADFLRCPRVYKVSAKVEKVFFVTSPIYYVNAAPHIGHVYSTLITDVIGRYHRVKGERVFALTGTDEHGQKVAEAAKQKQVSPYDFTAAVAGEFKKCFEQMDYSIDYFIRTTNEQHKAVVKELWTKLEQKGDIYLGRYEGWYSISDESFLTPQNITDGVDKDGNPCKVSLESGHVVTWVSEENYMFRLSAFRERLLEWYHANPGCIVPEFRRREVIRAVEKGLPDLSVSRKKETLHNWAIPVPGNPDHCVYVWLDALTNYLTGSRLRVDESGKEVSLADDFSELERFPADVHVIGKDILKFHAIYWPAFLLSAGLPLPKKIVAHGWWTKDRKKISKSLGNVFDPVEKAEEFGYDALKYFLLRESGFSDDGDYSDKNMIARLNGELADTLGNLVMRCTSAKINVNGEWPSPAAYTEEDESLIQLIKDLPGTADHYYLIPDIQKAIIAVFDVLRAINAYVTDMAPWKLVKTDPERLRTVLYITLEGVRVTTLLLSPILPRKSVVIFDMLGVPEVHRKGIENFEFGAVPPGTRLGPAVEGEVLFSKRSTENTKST

[6] = Counterscreen for inhibitors of Trypanosoma brucei methionyl tRNA synthetase (MetRS): Luminescence-based cell-based high throughput dose response assay to identify compounds that are cytotoxic to Jurkat human T lymphocyte cells.; format: functional
[7] = biological target: T1, Methionyl-tRNA synthetase, putative; format: functional, Trypanosoma brucei brucei strain 927/4 GUTat10.1; remark: listed apart in the source
[8] = Late stage counterscreen for inhibitors of Trypanosoma brucei methionyl tRNA synthetase (MetRS): Luminescence-based cell-based high throughput dose response assay to identify compounds that are cytotoxic to Jurkat human T lymphocyte cells.; format: functional
Protein skinhead-1 = biological target: T2, Protein skinhead-1 (Caenorhabditis elegans, UniProt P34707); format: functional
T2 sequence (P34707 whole entry): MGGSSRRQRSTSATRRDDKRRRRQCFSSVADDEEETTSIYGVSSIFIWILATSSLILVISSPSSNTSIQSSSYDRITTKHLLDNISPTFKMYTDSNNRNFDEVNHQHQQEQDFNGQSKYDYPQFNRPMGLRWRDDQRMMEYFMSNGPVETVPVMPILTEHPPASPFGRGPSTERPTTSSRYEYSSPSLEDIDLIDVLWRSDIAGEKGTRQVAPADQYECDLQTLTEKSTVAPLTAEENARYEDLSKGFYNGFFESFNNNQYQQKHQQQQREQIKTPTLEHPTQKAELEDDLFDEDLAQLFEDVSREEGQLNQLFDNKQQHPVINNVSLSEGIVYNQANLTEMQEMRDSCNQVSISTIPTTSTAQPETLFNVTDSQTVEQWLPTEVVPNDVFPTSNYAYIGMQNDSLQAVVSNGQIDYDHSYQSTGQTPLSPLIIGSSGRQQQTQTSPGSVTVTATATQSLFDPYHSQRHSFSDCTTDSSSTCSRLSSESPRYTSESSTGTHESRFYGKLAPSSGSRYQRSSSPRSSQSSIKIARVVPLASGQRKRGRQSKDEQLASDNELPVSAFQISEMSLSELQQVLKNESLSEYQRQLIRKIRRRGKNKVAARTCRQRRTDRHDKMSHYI

[9] = Luminescence-based cell-based high throughput dose response assay to identify activators of the DAF-12 from the parasite S. stercoralis (ssDAF-12).; format: functional
[10] = biological target: T3, Oxysterols receptor LXR-beta (Homo sapiens, UniProt P55055); assay: LXR agonists, Gal4 luciferase reporter, dose response, counter-screen for ssDAF-12 agonist project, cell-based, luminescence, HEK293, S. stercoralis campaign (AID 720737); format: functional; conditions: read-out: IC50 (the source's name)
T3 sequence (P55055 whole entry): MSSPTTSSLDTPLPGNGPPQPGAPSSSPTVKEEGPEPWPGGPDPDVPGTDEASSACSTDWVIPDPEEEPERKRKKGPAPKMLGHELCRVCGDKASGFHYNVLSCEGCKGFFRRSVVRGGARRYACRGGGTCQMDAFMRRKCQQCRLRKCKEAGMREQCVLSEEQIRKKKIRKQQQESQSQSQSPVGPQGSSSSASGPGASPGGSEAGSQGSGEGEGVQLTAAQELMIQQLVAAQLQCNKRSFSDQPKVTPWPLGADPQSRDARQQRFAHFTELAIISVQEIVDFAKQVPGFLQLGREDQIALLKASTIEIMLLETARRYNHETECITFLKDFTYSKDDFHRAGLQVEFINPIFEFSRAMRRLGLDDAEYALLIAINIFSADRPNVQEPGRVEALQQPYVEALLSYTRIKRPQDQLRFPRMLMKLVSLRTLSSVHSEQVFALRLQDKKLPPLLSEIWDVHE

[11] = biological target: T3, Oxysterols receptor LXR-beta; format: functional, cell-based
Cytochrome P450 3A4 = Cytochrome P450 3A4 (Homo sapiens, UniProt P08684);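 further: CYP3A4 tested as one member of a cytochrome P450 panel screen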
Cytochrome P450 3A4, sequence (P08684 whole entry): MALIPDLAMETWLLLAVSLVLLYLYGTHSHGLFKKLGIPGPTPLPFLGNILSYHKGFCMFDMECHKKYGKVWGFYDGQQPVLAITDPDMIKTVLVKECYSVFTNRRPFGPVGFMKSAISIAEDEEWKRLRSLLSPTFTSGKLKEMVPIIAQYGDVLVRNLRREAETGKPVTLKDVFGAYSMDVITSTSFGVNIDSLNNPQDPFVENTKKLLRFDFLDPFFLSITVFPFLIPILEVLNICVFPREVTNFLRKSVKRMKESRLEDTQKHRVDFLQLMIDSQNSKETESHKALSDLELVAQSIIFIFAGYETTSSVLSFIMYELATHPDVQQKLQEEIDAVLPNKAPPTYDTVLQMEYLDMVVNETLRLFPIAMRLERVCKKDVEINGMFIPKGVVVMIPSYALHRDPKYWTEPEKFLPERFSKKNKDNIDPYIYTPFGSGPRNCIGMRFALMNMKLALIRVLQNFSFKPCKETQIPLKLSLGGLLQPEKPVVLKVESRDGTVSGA

[12] = decrease of insulin promoter-GFP reporter – imaging, high-content screening, mouse beta cells (AID 1628); format: functional; conditions: MIN6
[13] = MIN6 cell viability loss – mouse insulinoma, cytotoxicity control, dose response (AID 2122); format: functional;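 further: confirmatory high-throughput counterscreen run to flag cytotoxic compounds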
[14] = IC50 of Artemis nuclease activity blockers – biochemical, fluorescence intensity, dose response (AID 720701); format: functional;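 further: Artemis endonuclease enzyme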
BJ [15] = assay: BJ-TERT fibroblast viability loss – cell-based, RAS-independent, luminescence, dose response (AID 1933); format: functional; conditions: Homo sapiens
BJ [16] = assay: cells; format: functional, cell-based; conditions: Homo sapiens
[17] = biological target: Luciferin 4-monooxygenase (Photinus pyralis, UniProt P08659); assay: inhibition of purified Photinus pyralis luciferase – biochemical, luminescence, dose response (AID 1891)
Luciferin 4-monooxygenase, sequence (P08659 whole entry): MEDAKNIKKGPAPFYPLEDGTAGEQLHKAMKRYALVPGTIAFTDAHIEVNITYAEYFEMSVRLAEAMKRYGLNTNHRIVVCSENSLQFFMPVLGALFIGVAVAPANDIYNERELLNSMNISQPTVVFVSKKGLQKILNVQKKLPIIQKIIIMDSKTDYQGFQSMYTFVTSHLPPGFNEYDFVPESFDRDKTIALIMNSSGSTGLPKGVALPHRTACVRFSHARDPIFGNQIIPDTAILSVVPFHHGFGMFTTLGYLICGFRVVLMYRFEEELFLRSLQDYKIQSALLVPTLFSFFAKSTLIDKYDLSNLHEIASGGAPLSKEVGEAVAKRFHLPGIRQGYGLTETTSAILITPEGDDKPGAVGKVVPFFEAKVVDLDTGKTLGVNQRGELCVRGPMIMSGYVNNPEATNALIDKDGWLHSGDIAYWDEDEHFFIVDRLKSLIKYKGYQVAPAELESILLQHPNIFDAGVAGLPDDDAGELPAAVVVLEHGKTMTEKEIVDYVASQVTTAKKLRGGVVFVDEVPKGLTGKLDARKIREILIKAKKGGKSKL

[18] = Luminescence Cell-Based Dose Confirmation HTS to Identify Inhibitors of Platelet Dense Granule Release. [Related pubchem assays: 1663 (Primary HTS), 1678 (Summary of Project)]; format: functional
BJ [19] = assay: BJ-TERT-LT-ST fibroblast viability loss – cell-based, RAS-independent, luminescence, dose response (AID 1935); format: functional; conditions: Homo sapiens;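 further: BJ fibroblasts immortalized with TERT plus LT and ST oncogenes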
[20] = DRD fibroblast viability loss – cell-based, non-viral oncogenic, luminescence, dose response (AID 1934); format: functional; conditions: Homo sapiens
[21] = HEK-293T viability loss after treatment – luminescence, T-cell screen hits, cytotoxicity control for TCR NF-kB inhibitor project, dose response (AID 489026); format: functional, cell-based;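 further: cells exposed to compound about 14 hours before the viability readout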
[22] = blockers of HIV-1 envelope-mediated cell-cell fusion – cherry-pick, dose response (AID 652057); format: functional, cell-based
[23] = viability loss in CEM21 cells – cell-based, CellTiter-Glo luminescence, cherry-picked, cytotoxicity control for viral fusion inhibitor project, dose response (AID 652042); format: functional;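 further: potency for signal decrease meaning cytotoxicity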
[24] = blockers of HIV-1 ZM109 envelope-driven cell-cell fusion – HeLa effector, CEM target cells, luciferase, cherry-pick, dose response (AID 652058); format: functional, cell-based;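 further: luciferase signal from HIV-1 Env mediated cell-cell fusion of effector and target cells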
Paired box protein Pax-8 = Paired box protein Pax-8 (Homo sapiens, UniProt Q06710); assay: PAX8 transcriptional activity inhibition in RMG-I – RMG-I cells, luciferase, cherry-pick, dose response (AID 687027); format: functional, cell-based;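 further: luciferase reporter driven by Pax8 target thyroperoxidase promoter measured by SteadyGlo luminescence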
Paired box protein Pax-8, sequence (Q06710 whole entry, the tested form may be a part): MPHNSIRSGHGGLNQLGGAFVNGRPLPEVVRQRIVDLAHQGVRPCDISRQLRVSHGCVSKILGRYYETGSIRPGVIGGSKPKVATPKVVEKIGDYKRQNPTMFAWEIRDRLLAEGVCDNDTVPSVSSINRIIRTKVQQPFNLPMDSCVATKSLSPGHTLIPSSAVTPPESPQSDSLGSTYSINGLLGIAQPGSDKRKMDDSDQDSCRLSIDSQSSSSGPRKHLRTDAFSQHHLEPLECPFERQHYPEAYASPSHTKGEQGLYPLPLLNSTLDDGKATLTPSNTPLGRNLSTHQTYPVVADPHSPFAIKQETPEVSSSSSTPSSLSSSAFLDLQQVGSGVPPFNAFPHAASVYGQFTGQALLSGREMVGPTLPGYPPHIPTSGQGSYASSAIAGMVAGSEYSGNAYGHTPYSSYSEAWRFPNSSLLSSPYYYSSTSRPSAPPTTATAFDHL

[25] = off-target signal loss in HeLa-CEM21 co-culture – HeLa F-luc CTL cells, cherry-picked, counter-screen for HIV-1 Env fusion inhibitor project, dose response (AID 652040); format: functional, cell-based;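 further: potency for signal decrease marking cytotoxic or nonspecific inhibition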
[26] = HIV-1 AD8 envelope cell-cell fusion blockers – cherry-pick, dose response (AID 652062); format: functional, cell-based;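 further: luciferase signal from cell-cell fusion driven by HIV-1 clade B AD8 Env; potency is for inhibitors of fusion seen as a drop in luminescence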
[27] = A549 cell cytotoxicity, dose response, cytotoxicity control, plate reader, cherry-pick, antagonist series (AID 743412); format: functional, cell-based
[28] = toxicity toward HepG2 liver cells – cell-based, plate reader, cherry-pick, antagonist series, cytotoxicity control, dose response (AID 743416); format: functional
[29] = blockers of bursicon-stimulated LGR2 cAMP reporter – cell-based, HEK293, CRE-luciferase reporter, cherry pick, set 2, dose response (AID 743343); format: functional;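 further: transfected cells were stimulated with diluted bursicon conditioned medium after compound addition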
[30] = general cell-killing toxicity readout – plate reader, dry powder samples, cytotoxicity control for PAX8 inhibitor project, dose response (AID 743021); format: functional, cell-based
[31] = blockade of melanocortin 4 receptor signaling – cell-based, plate reader, cherry pick, counter-screen for LGR2 antagonist project, dose response (AID 743444); format: functional;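 further: transfected HEK 293 cells stimulated with alpha-MSH peptide; potency of inhibitors of the alpha-MSH evoked signal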
[32] = viability loss in HEK293 cells – cell-based, plate reader, cherry-picked samples, cytotoxicity control, dose response (AID 743446); format: functional

Cn1c(=O)c2c(nc(NCc3ccco3)n2CCc2ccccc2)n(C)c1=O
active: AC50 [1] 2.34 µM | AC50 [2] 50.9 µM | AC50 [3] 18.3 µM | AC50 [4] 2.27 µM

O=C(NNC(=O)c1ccc(-n2cncn2)c([N+](=O)[O-])c1)c1ccc(Cl)cc1
inactive: IC50 [6] 83.2 µM | IC50 [8] > 83.3 µM
active: IC50 [5] 4.43 µM | IC50 [7] 2.72 µM

Fc1ccc(-c2cn3cc(C(F)(F)F)cc(Cl)c3n2)cc1
inactive: IC50 (Protein skinhead-1) > 100 µM | IC50 [9] > 67.5 µM | EC50 [10] > 67.5 µM | EC50 [11] > 67.5 µM | EC50 (cells) > 67.5 µM
inconclusive: AC50 (Cytochrome P450 3A4) 14.1 µM

COCCNc1nc(-n2nc(C)cc2C)nc2sc3c(c12)CCCC3
active: IC50 [12] 2.54 µM | IC50 [13] 2.1 µM | IC50 [14] 11.7 µM

COc1ccccc1C(=O)Nc1nc2ccccc2s1
active: EC50 (BJ [15]) 8.4 µM | EC50 (BJ [16]) 5.6 µM | EC50 [17] 0.296 µM | EC50 [18] 3.96 µM | EC50 (BJ [19]) 15.8 µM | EC50 [20] 5.93 µM | AC50 [22] 2.05 µM | AC50 [23] 13.7 µM | AC50 [24] 10.9 µM | AC50 (Paired box protein Pax-8) 3.69 µM | AC50 [25] 2.59 µM | AC50 [26] 2.44 µM | AC50 [27] 3.04 µM | AC50 [28] 3.64 µM | AC50 [29] 0.121 µM | AC50 [30] 10.5 µM | AC50 [31] 0.172 µM | AC50 [32] 3.61 µM
inactive: IC50 [21] > 80 µM
